Counter-ions that a name gives are not always drawn. Like-named read-outs stand apart in the source and are kept apart here.
Key:
[1] = cited from earlier work
hERG channel [2] = target: T1, hERG channel (Homo sapiens, UniProt Q12809); conditions: cited from earlier work
phospholipidosis (PLD) = conditions: read-out: PLD EC50; NPC qHTS in-house database; cited from earlier work
hERG channel [3] = target: T1, hERG channel
SARS-CoV-1 = conditions: cited from earlier work
[4] = tested on: Middle East respiratory syndrome (MERS)-CoV; conditions: cited from earlier work
SARS-CoV-2 = conditions: cited from earlier work; for SARS-CoV-2 CPE EC50: Vero E6 cells infected for 72 h, NPC qHTS in-house database
COVID-19 = conditions: patients hospitalized with COVID-19, observational; cited from earlier work
autophagy = conditions: in words; screening data; cited from earlier work
[5] = tier stated per drug in the text, based on hERG curve rank

T1 sequence (Q12809 whole entry): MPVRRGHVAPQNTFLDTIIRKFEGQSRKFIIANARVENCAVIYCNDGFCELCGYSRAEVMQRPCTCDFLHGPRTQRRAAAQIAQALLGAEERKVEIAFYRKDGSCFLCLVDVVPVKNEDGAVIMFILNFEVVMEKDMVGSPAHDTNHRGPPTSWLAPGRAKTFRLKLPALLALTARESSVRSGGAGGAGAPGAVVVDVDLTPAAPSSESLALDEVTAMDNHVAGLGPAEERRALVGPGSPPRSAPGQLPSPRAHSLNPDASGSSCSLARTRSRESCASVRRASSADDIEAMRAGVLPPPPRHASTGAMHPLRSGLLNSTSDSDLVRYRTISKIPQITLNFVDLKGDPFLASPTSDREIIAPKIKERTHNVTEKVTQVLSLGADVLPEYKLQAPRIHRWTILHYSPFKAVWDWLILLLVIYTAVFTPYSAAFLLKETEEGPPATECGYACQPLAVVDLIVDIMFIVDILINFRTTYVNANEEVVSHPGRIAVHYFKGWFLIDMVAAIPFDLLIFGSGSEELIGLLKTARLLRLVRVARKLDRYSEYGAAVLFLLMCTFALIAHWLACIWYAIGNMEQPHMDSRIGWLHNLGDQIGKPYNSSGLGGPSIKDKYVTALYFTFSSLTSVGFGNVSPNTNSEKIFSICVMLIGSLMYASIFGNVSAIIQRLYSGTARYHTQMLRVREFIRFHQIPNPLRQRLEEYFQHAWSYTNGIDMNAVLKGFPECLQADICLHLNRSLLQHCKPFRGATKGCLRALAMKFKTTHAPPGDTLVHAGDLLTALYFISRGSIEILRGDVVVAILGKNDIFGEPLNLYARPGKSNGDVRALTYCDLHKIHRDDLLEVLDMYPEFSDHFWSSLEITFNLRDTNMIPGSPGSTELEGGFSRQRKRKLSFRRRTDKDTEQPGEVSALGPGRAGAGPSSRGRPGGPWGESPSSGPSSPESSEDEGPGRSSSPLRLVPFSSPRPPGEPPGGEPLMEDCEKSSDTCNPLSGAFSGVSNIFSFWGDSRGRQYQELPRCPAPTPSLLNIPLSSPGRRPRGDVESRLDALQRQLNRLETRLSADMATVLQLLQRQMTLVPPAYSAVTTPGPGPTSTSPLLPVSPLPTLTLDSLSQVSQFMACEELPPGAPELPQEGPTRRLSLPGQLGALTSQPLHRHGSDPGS

For `COc1ccc(CCN2CCC(Nc3nc4ccccc4n3Cc3ccc(F)cc3)CC2)cc1` [Astemizole], the TdP risks [1] is listed as “known TdP risks” and the arrhythmias ([1]; in vivo) is listed as “fatal arrythmias”.
For `CC[C@H]1OC(=O)[C@H](C)[C@@H](O[C@H]2C[C@@](C)(OC)[C@@H](O)[C@H](C)O2)[C@H](C)[C@@H](O[C@@H]2O[C@H](C)C[C@H](N(C)C)[C@H]2O)[C@](C)(O)C[C@@H](C)CN(C)[C@H](C)[C@@H](O)[C@]1(C)O` [Azithromycin], the “hERG IC50” value (hERG channel [2]; NPC qHTS in-house database) is listed as “Inactive” and the hERG inhibition (hERG channel [2]; in words, screening data) is listed as “no hERG inhibition”.
In the case of `CCN(CC)CCCC(C)Nc1ccnc2cc(Cl)ccc12` (stereo not drawn) [Chloroquine], the EC50 (phospholipidosis (PLD)) is given as 11 µM.
For `CN(C)CCCN1c2ccccc2Sc2ccc(Cl)cc21` [Chlorpromazine], the hERG liability (hERG channel [3]; [5]) is listed as “high (high (curve rank > 4.0))”, the EC50 (phospholipidosis (PLD)) is listed as 10 µM and the “viral replication of SARS-CoV-1” value (SARS-CoV-1) is listed as “inhibit in vitro viral replication”. For the same compound, the “viral replication of MERS-CoV” value [4] was “inhibit in vitro viral replication” and the TdP risks ([1]; in vivo) was “known TdP risks”.
In the case of `NC(N)=Nc1nc(CSCCC(N)=NS(N)(=O)=O)cs1` [Famotidine], the “SARS-CoV-2 CPE EC50” value (SARS-CoV-2) is listed as “Inactive” and the clinical outcomes (COVID-19) is listed as “improved clinical outcomes”.
For `NC(=O)c1nc(F)c[nH]c1=O` [Favipiravir], the “SARS-CoV-2 CPE EC50” value (SARS-CoV-2) is listed as “Inactive”.
In the case of `CCN(CCO)CCCC(C)Nc1ccnc2cc(Cl)ccc12` (stereo not drawn) [Hydroxychloroquine sulfate], the “SARS-CoV-2 CPE EC50” value (SARS-CoV-2) is given as “Inactive” and the “hERG IC50” value (hERG channel [2]; NPC qHTS in-house database) is given as “Inactive”.
In the case of `CC[C@@H](C)[C@H]1O[C@]2(CC[C@@H]1C)C[C@@H]1C[C@@H](C/C=C(\C)[C@@H](O[C@H]3C[C@H](OC)[C@@H](O[C@H]4C[C@H](OC)[C@@H](O)[C@H](C)O4)[C@H](C)O3)[C@@H](C)/C=C/C=C3\CO[C@@H]4[C@H](O)C(C)=C[C@@H](C(=O)O1)[C@]34O)O2` [Ivermectin], the hERG liability (hERG channel [3]; [5]) is given as “moderate”, the EC50 (phospholipidosis (PLD)) is given as 17 µM and the IC50 (hERG channel [2]; read-out: hERG IC50, NPC qHTS in-house database) is given as 9.7 µM.
For `O=C(Nc1ccc([N+](=O)[O-])cc1Cl)c1cc(Cl)ccc1O` [Niclosamide], the EC50 (phospholipidosis (PLD)) is listed as 1 µM, the “activity in the autophagy assay” value (autophagy) is listed as “moderate activity” and the “hERG IC50” value (hERG channel [2]; NPC qHTS in-house database) is listed as “Inactive”.
For `CC(=O)Oc1ccccc1C(=O)Nc1ncc([N+](=O)[O-])s1` [Nitazoxanide], the “activity in the CPE assay” value (SARS-CoV-2; in words, screening data) is given as “moderate activity”, the “activity in the autophagy assay” value (autophagy) is given as “no activity” and the “hERG IC50” value (hERG channel [2]; NPC qHTS in-house database) is given as “Inactive”.
With `O=C(CCCN1CCC(O)(c2ccc(Cl)cc2)CC1)c1ccc(F)cc1` [haloperidol] the hERG liability (hERG channel [3]) was “high (key: low (curve rank < 1.0); medium (curve rank between 1.0 and 4.0); high (curve rank > 4.0))”.
For `CN1CCCCC1CCN1c2ccccc2Sc2ccc([S+](C)[O-])cc21` (stereo not drawn) [mesoridazine], the hERG liability (hERG channel [3]) is given as “high (key: low (curve rank < 1.0); medium (curve rank between 1.0 and 4.0); high (curve rank > 4.0))” and the TdP risks ([1]; in vivo) is given as “known TdP risks”.

From publication PMC8983078 (Drug Discovery Today, 2022)
